Measured values as given in article PMC7339578, “Multiple circulating alkaloids and saponins from intravenous Kang-Ai injection inhibit human cytochrome P450 and UDP-glucuronosyltransferase isozymes: potential drug–drug interactions” (Chinese Medicine, 2020).
“And” between values parts separate entries of the source, which are not always exact repeats. Identical values can stand only once. Like-named read-outs stand apart in the source and are kept apart here.

Legend:
[1] = Plasma pharmacokinetics in rats after a 30-min intravenous infusion of Kang-Ai injection; assay type: in vivo, Sprague–Dawley rats
Summary of the method: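 Fasted male Sprague–Dawley rats (250 ± 20 g) got a single 30-min tail-vein infusion of Kang-Ai injection at 6 mL/kg. Jugular blood was sampled from 5 min to 12 h for plasma. Parameters came from non-compartmental analysis (trapezoidal AUC), n = 3.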

[2] = Biliary (hepatobiliary) excretion in rats after a 30-min infusion of Kang-Ai injection; assay type: in vivo, Sprague–Dawley rats; settings: for fe-B,0–12h (fraction of dose excreted into bile): rat bile 0–12 h; for fe-B,0–12h (fraction of dose excreted into bile) / detection in bile: Kang-Ai injection 6 mL/kg iv; for detection in bile: rat bile
Summary of the method: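 Urine collected in metabolic cages at 0–4, 4–8, 8–12 h and bile at 0–3, 3–6, 6–9, 9–12 h after infusion start, weighed and frozen at −80 °C. Non-compartmental analysis; CLR and CLB as cumulative urinary or biliary amount divided by plasma AUC0-∞, fe-U and fe-B as cumulative amount/dose; mean ± SD (n = 3).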

CYP2E1 = CYP2E1 (Homo sapiens, UniProt P05181); assay: Inhibition of recombinant CYP2E1 (probe chlorzoxazone)
Method: Phase I incubation system (100 μL) contained Tris–HCl buffer (50 mM, pH = 7.4), MgCl2 (5 mM), each CYP isozyme, specific substrates, circulating compounds and NADPH (1 mM) as prescribed previously. After incubation (37 °C, 60 min), the reaction was terminated by ice-cold acetonitrile (100 μL), following by centrifugation at 13,800g for 10 min. The supernatant (8 μL) was acquired for ultra-high-performance liquid chromatography (UHPLC) system (Waters, Manchester, UK) analysis.
After optimization of incubation conditions (Additional file 1: Fig. S1), the substrates were incubated with each CYP isozyme at different protein concentrations (0.05 mg/mL for CYP1A2 and 3A4; 0.1 mg/mL for CYP2A6, 2B6, 2C8, 2C9, 2C19 and 2E1) in the absence (control) and presence of different mixture or herbal compounds (Kang-Ai injection and samples that Kang-Ai injection was diluted 10 times; 1, 10, and 100 μM for matrine and oxymatrine; 0.1, 1, 10 and 100 μM for astragalosides and ginsenosides).
The half-inhibition concentration (IC50) values were determined by non-linear regression analysis. […] The inhibition mechanism towards corresponding CYP and UGT isoforms were further explored.
The inhibition constant (Ki) values were obtained by multiple concentrations of substrates in the absence or presence of multiple concentrations of herbal compounds as described previously. […] (1)–(3), respectively. The model with the smallest Akaike information criterion (AIC) and Schwartz information criterion (SC) values was considered as the best model, following the obtained appropriate Ki values. Model fitting and parameter estimation were performed using Graphpad Prism V5 software (SanDiego, CA).

UGT1A1 = molecular target: T1, UGT1A1 (Homo sapiens, UniProt P22309); assay: Inhibition of expressed UGT1A1 (probe β-estradiol); assay type: in vitro ADME
T1 sequence (P22309 26-533): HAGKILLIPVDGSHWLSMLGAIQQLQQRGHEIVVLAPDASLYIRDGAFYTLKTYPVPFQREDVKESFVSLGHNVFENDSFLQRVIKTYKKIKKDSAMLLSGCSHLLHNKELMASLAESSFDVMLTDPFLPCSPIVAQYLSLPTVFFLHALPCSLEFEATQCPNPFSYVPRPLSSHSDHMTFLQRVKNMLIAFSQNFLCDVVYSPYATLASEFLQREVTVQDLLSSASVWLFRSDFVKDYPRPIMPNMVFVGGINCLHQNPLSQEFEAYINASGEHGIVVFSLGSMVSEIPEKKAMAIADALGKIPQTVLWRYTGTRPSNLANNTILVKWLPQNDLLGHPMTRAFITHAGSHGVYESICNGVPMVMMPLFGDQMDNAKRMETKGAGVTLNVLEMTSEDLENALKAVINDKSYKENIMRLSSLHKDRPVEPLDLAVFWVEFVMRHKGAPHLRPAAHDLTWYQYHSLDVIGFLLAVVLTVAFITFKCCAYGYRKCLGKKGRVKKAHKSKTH
Method: After centrifugation (13,800g, 10 min), the supernatant (8 μL) was obtained for determination by UHPLC system.
Similarly, β-estradiol (60 μM), propofol (40 μM) and 4-MU (350 μM) were typically used as the substrates for UGT1A1, 1A9 and 2B7, respectively. After optimization of incubation conditions (Additional file 1: Fig. S2), the protein concentrations for UGT1A1, 1A9, and 2B7 were 0.125, 0.05, and 0.05 mg/mL, respectively.

[3] = male, Sprague-Dawley, plasma, rat, 30-min iv infusion of Kang-Ai injection 6 mL/kg, Table 1 unit, read-out: CLtot, p (converted)
[4] = male, Sprague-Dawley, plasma, rat, 30-min iv infusion of Kang-Ai injection 6 mL/kg, Table 1 unit, read-out: VSS
[5] = male, Sprague-Dawley, rat plasma, 30-min iv infusion of Kang-Ai injection 6 mL/kg, read-out: t1/2 (converted)
[6] = male, Sprague-Dawley, rat, in vivo, iv
[7] = recombinant isozyme, mean ± SD of triplicate, unit not given (IC50 classes in μM), read-out: IC50 towards UGT1A1
[8] = male, Sprague-Dawley, rat plasma, 30-min iv infusion of Kang-Ai injection 6 mL/kg, read-out: Cmax

CYP2E1, sequence (P05181 whole entry): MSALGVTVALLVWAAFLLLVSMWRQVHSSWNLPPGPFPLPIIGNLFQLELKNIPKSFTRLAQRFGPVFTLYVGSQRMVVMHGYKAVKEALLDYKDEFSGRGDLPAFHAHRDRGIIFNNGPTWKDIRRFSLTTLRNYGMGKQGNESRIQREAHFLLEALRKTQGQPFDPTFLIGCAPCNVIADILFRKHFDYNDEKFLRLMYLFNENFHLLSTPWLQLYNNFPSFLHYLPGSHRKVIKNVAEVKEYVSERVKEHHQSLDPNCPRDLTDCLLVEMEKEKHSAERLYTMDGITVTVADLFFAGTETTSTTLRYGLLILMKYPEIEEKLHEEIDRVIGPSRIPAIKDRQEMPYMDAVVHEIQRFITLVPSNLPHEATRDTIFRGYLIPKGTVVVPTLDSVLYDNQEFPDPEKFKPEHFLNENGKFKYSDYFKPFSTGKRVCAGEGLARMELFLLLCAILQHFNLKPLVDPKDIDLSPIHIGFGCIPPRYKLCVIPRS

Row | Cmax [1, 8] | SMILES | clearance [1, 3] | Vd [1, 4] | half-life [1, 5] | fe-B,0–12h (fraction of dose excreted into bile) [2] | IC50 (CYP2E1) | IC50 (UGT1A1; [7]) | other results
1 | – | O=C1CCC[C@@H]2[C@H]3CCCN4CCC[C@@H](CN12)[C@@H]34 [Compound A1, Matrine] | 0.0263 mL/min | 0.00985 ± 0.00247 L | 4.33 ± 2.18 h | 36.55% and 36.55 ± 4.24% | > 100 µM | – | clearance ([1]; male, Sprague-Dawley, plasma, rat, Kang-Ai injection 6 mL/kg iv, read-out: CLtot, p (converted)): 1.58 mL/h/kg; Vd ([1]; male, Sprague-Dawley, plasma, rat, Kang-Ai injection 6 mL/kg iv, read-out: VSS (Vd)): 0.00985 L/kg; AUC(0-t) ([1]; male, Sprague-Dawley, rat, plasma, iv, 6 mL/kg, rat plasma, 30-min iv infusion of Kang-Ai injection 6 mL/kg, unit per footnote # for matrine and oxymatrine, read-out: AUC0–12h): 68.6 ± 9.85 µM·h; Cmax ([1]; male, Sprague-Dawley, rat plasma, 30-min iv infusion of Kang-Ai injection 6 mL/kg, unit per footnote # for matrine and oxymatrine, read-out: Cmax): 15100 ± 3580 nM; IC50 (UGT1A1): > 100 µM
2 | – | O=C1CCC[C@@H]2[C@H]3CCC[N+]4([O-])CCC[C@@H](CN12)[C@@H]34 (stereo partly shown) [Compound A3, Oxymatrine] | – | – | – | – | > 100 µM | – | Cmax [1, 6]: 423000 ± 55500 nM; Vd [1, 6]: 0.22 L/kg; clearance [1, 6]: 1.86 mL/min/kg and 1.86 mL/min; half-life [1, 6]: 2.73 ± 1.16 h; CLB (hepatobiliary clearance) [2, 6]: 31.95 ± 4.76 mL/h; IC50 (UGT1A1; IC50 towards UGT1A1, recombinant isozyme, mean ± SD of triplicate, unit not given (IC50 classes in μM)): > 100 µM
3 | – | CC(C)(O)[C@@H]1CC[C@](C)([C@H]2[C@@H](O)C[C@@]3(C)[C@@H]4C[C@H](O[C@@H]5O[C@H](CO)[C@@H](O)[C@H](O)[C@H]5O)[C@H]5C(C)(C)[C@@H](O[C@@H]6OC[C@@H](O)[C@H](O)[C@H]6O)CC[C@@]56C[C@@]46CC[C@]23C)O1 [Compound B2, Astragaloside IV] | – | – | – | – | – | > 100 µM | t1/2 ([1]; rat plasma, 30-min iv infusion of Kang-Ai injection 6 mL/kg): 1.64 ± 0.26 h; Cmax ([1]; rat plasma, 30-min iv infusion of Kang-Ai injection 6 mL/kg, read-out: Cmax): 2360 ± 252 nM; VSS (Vd) ([1]; rat, Kang-Ai injection 6 mL/kg iv): < 0.1 L/kg; IC50 (CYP2E1; read-out: IC50 towards CYP2E1, recombinant isozyme, mean ± SD of triplicate, unit not given (IC50 classes in μM)): > 100 µM
4 | – | CC(C)=CCC[C@](C)(O)[C@H]1CC[C@]2(C)[C@@H]1[C@H](O)C[C@@H]1[C@@]3(C)CC[C@H](O)C(C)(C)[C@@H]3[C@@H](O[C@@H]3O[C@H](CO)[C@@H](O)[C@H](O)[C@H]3O[C@@H]3O[C@H](CO)[C@@H](O)[C@H](O)[C@H]3O)C[C@]12C [Compound C7, Ginsenoside Rf] | – | – | – | 13.12 ± 1.68% | > 100 µM | > 100 µM | Cmax [1, 6]: 943 ± 172 nM; clearance [1, 6]: 1.82 mL/min; half-life [1, 6]: 0.63 ± 0.31 h
5 | 1340 ± 88.1 nM | CC(C)=CCC[C@](C)(O[C@@H]1O[C@H](CO)[C@@H](O)[C@H](O)[C@H]1O)[C@H]1CC[C@]2(C)[C@@H]1[C@H](O)C[C@@H]1[C@@]3(C)CC[C@H](O)C(C)(C)[C@@H]3[C@@H](O[C@@H]3O[C@H](CO)[C@@H](O)[C@H](O)[C@H]3O[C@@H]3O[C@@H](C)[C@H](O)[C@@H](O)[C@H]3O)C[C@]12C [Compound C9, Ginsenoside Re] | 2.61 mL/min | 0.101 ± 0.027 L | 1.07 ± 0.84 h | 28.27 ± 4.16% | > 100 µM | > 100 µM | –
6 | 766 ± 57.9 nM | CC(C)=CCC[C@](C)(O[C@@H]1O[C@H](CO)[C@@H](O)[C@H](O)[C@H]1O)[C@H]1CC[C@]2(C)[C@@H]1[C@H](O)C[C@@H]1[C@@]3(C)CC[C@H](O[C@@H]4O[C@H](CO)[C@@H](O)[C@H](O)[C@H]4O[C@@H]4O[C@H](CO)[C@@H](O)[C@H](O)[C@H]4O)C(C)(C)[C@@H]3CC[C@]12C [Compound D2, Ginsenoside Rd] | 0.0972 mL/min | – | 5.84 ± 3.13 h | 5.55% and 5.55 ± 1.02% | > 100 µM | > 100 µM | Vd ([1]; male, Sprague-Dawley, plasma, rat, 30-min iv infusion of Kang-Ai injection 6 mL/kg, Table 1 unit): 0.0357 ± 0.0114 L/kg
7 | 497 ± 75.1 nM | CC(C)=CCC[C@](C)(O[C@@H]1O[C@H](CO[C@@H]2O[C@H](CO)[C@@H](O)[C@H](O)[C@H]2O)[C@@H](O)[C@H](O)[C@H]1O)[C@H]1CC[C@]2(C)[C@@H]1[C@H](O)C[C@@H]1[C@@]3(C)CC[C@H](O[C@@H]4O[C@H](CO)[C@@H](O)[C@H](O)[C@H]4O[C@@H]4O[C@H](CO)[C@@H](O)[C@H](O)[C@H]4O)C(C)(C)[C@@H]3CC[C@]12C [Compound D5, Ginsenoside Rb1] | 0.103 mL/min | 0.047 ± 0.0199 L | 7.22 ± 7.03 h | – | > 100 µM | > 100 µM | detection in bile [2]: not detected in bile

Row | SMILES | Cmax [1, 8] | clearance [1, 3] | Vd [1, 4] | half-life [1, 5] | fe-B,0–12h (fraction of dose excreted into bile) [2] | IC50 (CYP2E1) | IC50 (UGT1A1; [7]) | other results
8 | CC(C)=CCC[C@](C)(O[C@@H]1O[C@H](CO)[C@@H](O)[C@H](O)[C@H]1O)[C@H]1CC[C@]2(C)[C@@H]1[C@H](O)C[C@@H]1[C@@]3(C)CC[C@H](O)C(C)(C)[C@@H]3[C@@H](O[C@@H]3O[C@H](CO)[C@@H](O)[C@H](O)[C@H]3O)C[C@]12C [Compound C6, Ginsenoside Rg1] | 1570 ± 175 nM | 2.61 mL/min | 0.144 ± 0.0642 L | 1.2 ± 1.23 h | 20.71 ± 3.62% | > 100 µM | 92.2 ± 40 µM | inhibition type (smallest AIC and SC) (UGT1A1; UGT1A1): competitive inhibition; Ki (UGT1A1; UGT1A1, competitive model): 141 ± 10.5 µM; Ki (UGT1A1; UGT1A1, mixed-type model): 147 ± 29.9 µM; α (UGT1A1; UGT1A1, mixed-type model): 8.3 ± 37.2; Ki (UGT1A1; UGT1A1, noncompetitive model): 187 ± 12.7 µM; Cmax/Ki ([I]/Ki) (UGT1A1; UGT1A1, selected model, rat plasma Cmax): 0.01; IC50 (UGT1A1; β-estradiol 60 μM, read-out: IC50 against UGT1A1): 92.2 µM
9 | CC(C)=CCC[C@](C)(O[C@@H]1O[C@H](CO[C@@H]2O[C@@H](CO)[C@H](O)[C@H]2O)[C@@H](O)[C@H](O)[C@H]1O)[C@H]1CC[C@]2(C)[C@@H]1[C@H](O)C[C@@H]1[C@@]3(C)CC[C@H](O[C@@H]4O[C@H](CO)[C@@H](O)[C@H](O)[C@H]4O[C@@H]4O[C@H](CO)[C@@H](O)[C@H](O)[C@H]4O)C(C)(C)[C@@H]3CC[C@]12C [Compound D3, Ginsenoside Rc] | 877 ± 39.5 nM | 0.0933 mL/min | 0.0378 ± 0.0102 L | 6.29 ± 3.17 h | – | > 100 µM | > 100 µM | detection in bile [2]: not detected in bile
